System: PBMC (polyclonal gluten-specific T cells) of paediatric and adult CD patients
Assay: IFN-γ ELISpot of PBMC after 3 day oral wheat challenge (SFU, % of maximal peptide response, dominance scores, EC50; Examples 5-6)
Format: cell-based, human
Settings: for IFN-γ ELISpot response: after oral wheat challenge
[1] = patient A, 11-17 yrs, cut-off 10 SFU
[2] = patient E, H, 11-17 yrs, cut-off 10 SFU
[3] = patient F, 11-17 yrs, cut-off 10 SFU
[4] = patient G, 11-17 yrs, cut-off 10 SFU
[5] = patient H (HLA-DQ2.5 homozygote), 3-5yrs, cut-off 10 SFU
[6] = patient H, 11-17 yrs, cut-off 10 SFU
[7] = patient ID not given, 11-17 yrs, cut-off 10 SFU
[8] = patient ID not given, max peptide 95 SFU
[9] = patient N, 3-5yrs, cut-off 10 SFU
[10] = patient P, 11-17 yrs, cut-off 21.6 SFU
[11] = patient Q, 11-17 yrs, cut-off 10 SFU
[12] = patient U, H, 11-17 yrs, cut-off 10 SFU
[13] = patient V, 6-10 yrs, cut-off 10 SFU
[14] = patient Y, 6-10 yrs, cut-off 10 SFU
[15] = patient eleven, 6-10 yrs, cut-off 10 SFU
[16] = patient four, 3-5yrs, cut-off 10 SFU
[17] = patient seven, 6-10 yrs, cut-off 10.5 SFU
[18] = patient ten, 3-5yrs, cut-off 10 SFU
[19] = patient three, 6-10 yrs, cut-off 10.5 SFU
[20] = patient twelve, 11-17 yrs, cut-off 10 SFU
[21] = patient two, 3-5yrs, cut-off 10 SFU

PEQPFPEQPEQPF
IFN-γ ELISpot response [1]: 2 SFU | IFN-γ ELISpot response [2]: 14 SFU | Significant response as percentage of maximal peptide SFU (patient E, max peptide 224 SFU): (6-10% = ^) | IFN-γ ELISpot response [3]: 2 SFU | IFN-γ ELISpot response [4]: 2 SFU | IFN-γ ELISpot response [5]: 4 SFU | IFN-γ ELISpot response [6]: 9 SFU | IFN-γ ELISpot response [7]: 15 SFU | Significant response as percentage of maximal peptide SFU [8]: ′ (11-20% = ′) | Significant response as percentage of maximal peptide SFU (patient J, max peptide 196 SFU): ′ (11-20% = ′) | Significant response as percentage of maximal peptide SFU (patient K, max peptide 53 SFU): ′′ (21-40% = ′′) | IFN-γ ELISpot response [9]: 0 SFU | IFN-γ ELISpot response [10]: 10 SFU | IFN-γ ELISpot response [11]: 11 SFU | Significant response as percentage of maximal peptide SFU (patient Q, max peptide 97 SFU): ′ (11-20% = ′) | IFN-γ ELISpot response [12]: 5 SFU | IFN-γ ELISpot response [13]: 3 SFU | IFN-γ ELISpot response [14]: 2 SFU | IFN-γ ELISpot response [15]: 12 SFU | Significant response as percentage of maximal peptide SFU (patient eleven, max peptide 57 SFU): ′′ (21-40% = ′′) | IFN-γ ELISpot response [16]: 4 SFU | Significant response as percentage of maximal peptide SFU (patient nine, max peptide 10 SFU): + (>70% = +) | IFN-γ ELISpot response [17]: 5 SFU | IFN-γ ELISpot response [18]: 11 SFU | Significant response as percentage of maximal peptide SFU (patient ten, max peptide 14.5 SFU): + (>70% = +) | IFN-γ ELISpot response [19]: 24 SFU | IFN-γ ELISpot response [20]: 1 SFU | IFN-γ ELISpot response [21]: 9 SFU

QFIQPEQPFPQQ
IFN-γ ELISpot response [1]: 0 SFU | IFN-γ ELISpot response [2]: 31 SFU | Significant response as percentage of maximal peptide SFU (patient E, max peptide 224 SFU): ′ (11-20% = ′) | IFN-γ ELISpot response [3]: 28 SFU | Significant response as percentage of maximal peptide SFU (patient F, max peptide 178 SFU): ′ (11-20% = ′) | IFN-γ ELISpot response [4]: 2 SFU | IFN-γ ELISpot response [5]: 8 SFU | IFN-γ ELISpot response [6]: 3 SFU | IFN-γ ELISpot response [7]: 21 SFU | Significant response as percentage of maximal peptide SFU [8]: ′′ (21-40% = ′′) | Significant response as percentage of maximal peptide SFU (patient II, max peptide 15 SFU): + (>70% = +) | Significant response as percentage of maximal peptide SFU (patient J, max peptide 196 SFU): ′ (11-20% = ′) | Significant response as percentage of maximal peptide SFU (patient K, max peptide 53 SFU): ′′ (21-40% = ′′) | IFN-γ ELISpot response [9]: 6 SFU | IFN-γ ELISpot response [10]: 8 SFU | IFN-γ ELISpot response [11]: 25 SFU | Significant response as percentage of maximal peptide SFU (patient Q, max peptide 97 SFU): ′′ (21-40% = ′′) | IFN-γ ELISpot response [12]: 13 SFU | Significant response as percentage of maximal peptide SFU (patient U, max peptide 81 SFU): ′ (11-20% = ′) | IFN-γ ELISpot response [13]: 19 SFU | Significant response as percentage of maximal peptide SFU (patient V, max peptide 35 SFU): ′′′ (41-70% = ′′′) | IFN-γ ELISpot response [14]: 3 SFU | IFN-γ ELISpot response [15]: 0 SFU | IFN-γ ELISpot response [16]: 6 SFU | IFN-γ ELISpot response [17]: 8 SFU | IFN-γ ELISpot response [18]: 6 SFU | IFN-γ ELISpot response [19]: 30 SFU | IFN-γ ELISpot response [20]: 6 SFU | IFN-γ ELISpot response [21]: 7 SFU

FPQPQQQFPQPQQ
IFN-γ ELISpot response [1]: 2 SFU | IFN-γ ELISpot response [2]: 12 SFU | Significant response as percentage of maximal peptide SFU (patient E, max peptide 224 SFU): (6-10% = ^) | IFN-γ ELISpot response [3]: 4 SFU | IFN-γ ELISpot response [4]: 1 SFU | IFN-γ ELISpot response [5]: 6 SFU | IFN-γ ELISpot response [6]: 5 SFU | IFN-γ ELISpot response [7]: 1 SFU | Significant response as percentage of maximal peptide SFU (patient II, max peptide 15 SFU): + (>70% = +) | IFN-γ ELISpot response [9]: 1 SFU | IFN-γ ELISpot response [10]: 4 SFU | IFN-γ ELISpot response [11]: 10 SFU | Significant response as percentage of maximal peptide SFU (patient Q, max peptide 97 SFU): ′ (11-20% = ′) | IFN-γ ELISpot response [12]: 4 SFU | IFN-γ ELISpot response [13]: 2 SFU | IFN-γ ELISpot response [14]: 6 SFU | IFN-γ ELISpot response [15]: 1 SFU | IFN-γ ELISpot response [16]: 5 SFU | IFN-γ ELISpot response [17]: 2 SFU | IFN-γ ELISpot response [18]: 4 SFU | IFN-γ ELISpot response [19]: 1 SFU | IFN-γ ELISpot response [20]: 5 SFU | IFN-γ ELISpot response [21]: 0 SFU

— US20170232083A1, “METHODS OF DIAGNOSIS AND TREATMENT OF CELIAC DISEASE IN CHILDREN” (priority 2014, published 2017)
